Consider two molecules from article PMC8333425, “Discovery of a dual Ras and ARF6 inhibitor from a GPCR endocytosis screen” (Nature Communications, 2021).

One series deals with MDA-MB-231 cells. As to the kind of experiment: Cell viability assay (MTT), MDA-MB-231. The format is cell-based, human. The following applies: for cell viability (MTT signal): S_Fig12f, listed as Comp 21.8. On the procedure:
MDA-MB-231 breast cancer cells and A549 lung carcinomas (1500 cells in 150 μl/well) were seeded overnight on a clear 96-well plate. Twenty-four hours later, the cells were treated with 0.1% DMSO, or different concentrations of Rasarfin (as indicated), or 10 µM of 21.4, 21.8 (MDA-MB-231 breast cancer cells) or Doxorubicin for the indicated times at 37 °C. At each time point, 10 μl of 5 mg/ml MTT was added to each well and the plates were incubated for an additional 4 h at 37 °C. The absorbance at 590 nm was measured by plate reader. Experiments were done in triplicate and repeated three times.

For the next series, the system named is Akt activation by EGFR. As to the kind of experiment: Western blot of EGFR-mediated Akt activation. The format is cell-based, human. The settings on record: for AKT activation, EGFR (p-Akt over Akt): individual experiments. The method, then:
HEK293SL cells (10^5 cells per well) were seeded in a poly-L-lysine-coated six-well plate and transiently transfected with 3 μg Flag-AT1R, HA-B2R or HA-β2AR and/or 500 ng Flag-MEK1-WT, Flag-MEK1-DD, Flag-BRAF-WT, Flag-BRAF-V600E, Flag-K-Ras-WT, Flag-K-Ras-G12V, HA-ARF6-WT, or HA-ARF6-T27N. Gαq/11 KO and βarr1/2 KO cells were seeded onto 100 mm dishes at a density of 10^6 cells per dish. Next day, cells were transfected with 3 μg AT1R alone or along with 500 ng of β-arrestin2 using PEI. After 18 h of transfection, cells were detached and re-seeded onto poly-L-lysine coated 12-well plates (~1.5–2 × 10^5cells/well) for subsequent experiments. Forty-eight hours post transfection, in a 37 °C water bath, cells were serum-starved for 30 min, pretreated with DMSO (0.1%) or compound 21/Rasarfin (50 µM or at indicated concentrations) for 30 min, then stimulated or not with the indicated ligand [AngII (1 µM), BK (1 µM), Iso (10 µM) or EGF (100 ng/ml)] at indicated times. Cells were put on ice, washed with PBS and solubilized in 2x laemmli buffer (250 mM Tris–HCl pH 6.8, 2% SDS (w/v), 10% glycerol (v/v), 0.01% bromophenol blue (w/v) and 5% β-mercaptoethanol (v/v)) by heating at 65 °C for 15 min. Lysates were resolved on 10 or 14% SDS-PAGE, transferred to nitrocellulose membranes and immunoblotted for p-ERK1/2, ERK1/2, p-Akt, Akt, HA, Myc, β-actin or FLAG. ImageLab 5.2 software was used to quantify the digital blots as fold of the phosphorylated protein over total protein, which were then normalized as indicated in the figure legends. Uncropped immunoblots are provided in the Source Data file.
(In general: In western blotting, separated proteins are transferred to a membrane and probed.)

Values joined by “and” are separate entries in the source; they are usually repeats but may differ in a detail not shown here. Identical values can stand only once.

For `CC(C)C(=O)N1CCN(c2ccc(NC(=O)c3cc4ccccc4o3)cc2Cl)CC1` [Compound 21], in the series on MDA-MB-231 cells (Doxorubicin 10 µM), the “MDA-MB-231 cell viability (MTT)” value was “cell viability was not affected”. Further, in the series on MDA-MB-231 cells (after 48 and 72 h of treatment, compared to DMSO), the “metabolic activity of MDA-MB-231 cells (MTT)” value is “modestly decreased in a dose-dependent manner the metabolic activity of cancer cells”. Further, in the series on Akt activation by EGFR (Homo sapiens, read-out: potency for inhibition of EGFR-mediated Akt (western blot)), the IC50 was 4 to 5 µM. Besides, the “AKT activation, EGFR (p-Akt over Akt)” value in the series with Akt activation by EGFR (Log [Comp 21] (M) -4.3) is 12.9009 percent compared to DMSO and 28.9803 percent compared to DMSO and 32.6041 percent compared to DMSO; in the series with Akt activation by EGFR (Log [Comp 21] (M) -5) it was 21.4684 percent compared to DMSO and 57.877 percent compared to DMSO and 33.8957 percent compared to DMSO; in the series with Akt activation by EGFR (Log [Comp 21] (M) -5.3), 42.6879 percent compared to DMSO and 80.2621 percent compared to DMSO and 48.2006 percent compared to DMSO; in the series with Akt activation by EGFR (Log [Comp 21] (M) -6), 93.9059 percent compared to DMSO and 99.6926 percent compared to DMSO and 89.9021 percent compared to DMSO; in the series on Akt activation by EGFR (Log [Comp 21] (M) -6.3), 94.5153 percent compared to DMSO and 100.709 percent compared to DMSO and 97.0491 percent compared to DMSO; in the series with Akt activation by EGFR (Log [Comp 21] (M) -7) it was 104.373 percent compared to DMSO and 93.1512 percent compared to DMSO and 83.461 percent compared to DMSO.
For `CCCC(=O)N1CCN(c2ccc(NC(=O)c3cc4ccccc4o3)cc2Cl)CC1` [Compound 21.8], the “metabolic activity of MDA-MB-231 cells (MTT)” value in the series with MDA-MB-231 cells (10 µM) is given as “moderately decreasing the metabolic activity of cancer cells”. The “cell viability (MTT signal)” value in the series with MDA-MB-231 cells (24h) is 0.2449 and 0.2125 and 0.1916; in the series with MDA-MB-231 cells (48h) it was 0.2769 and 0.2869 and 0.2058; in the series on MDA-MB-231 cells (72h), 0.2794 and 0.3667 and 0.3826.
